Experimental data reported in the supplement of paper PMC12370961.

Key:
Test in all cases: differential drug sensitivity score (dDSS) relative to sarcoma reference cohort mean DSS (DSS units (0-100 scale difference)); higher = more selective sensitivity than reference sarcomas
Settings in all cases: exposure time: 72 h; concentration range: 10-10000 nM
[1] = tested on: CDS-ZH001-2 (patient-derived CIC-DUX4 sarcoma tumoroid)
Description: (§1)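 Drug response profiling of patient-derived Ewing sarcoma and CIC::DUX4 sarcoma tumoroid models (or cells tested directly after isolation from the tumor, 'direct'). The DSS is the normalised AUC (0-100); dDSS is the sample DSS minus the mean DSS of a 34-sarcoma reference cohort profiled in the same lab.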

[2] = tested on: CDS-ZH001 (patient-derived CIC-DUX4 sarcoma tumoroid)
Description: as §1

[3] = tested on: CDS-ZH002 direct (CIC-DUX4 sarcoma cells right after isolation)
Description: as §1

[4] = tested on: CDS-ZH002 (patient-derived CIC-DUX4 sarcoma tumoroid)
Description: as §1

[5] = tested on: CDS-ZH003 (patient-derived CIC-DUX4 sarcoma tumoroid)
Description: as §1

[6] = tested on: ES-ZH001 (patient-derived Ewing sarcoma tumoroid)
Description: as §1

[7] = tested on: ES-ZH002 (patient-derived Ewing sarcoma tumoroid)
Description: as §1

[8] = tested on: ES-ZH004 (patient-derived Ewing sarcoma tumoroid)
Description: as §1

[9] = tested on: ES-ZH007 (patient-derived Ewing sarcoma tumoroid)
Description: as §1

[10] = tested on: ES-ZH008 (patient-derived Ewing sarcoma tumoroid)
Description: as §1

[11] = tested on: ES-ZH009 (patient-derived Ewing sarcoma tumoroid)
Description: as §1

[12] = tested on: ES-ZH016 direct (Ewing sarcoma cells right after isolation)
Description: as §1

[13] = tested on: ES-ZH016 (patient-derived Ewing sarcoma tumoroid)
Description: as §1

Row | Compound | differential drug sensitivity score [1] | differential drug sensitivity score [2] | differential drug sensitivity score [3] | differential drug sensitivity score [4] | differential drug sensitivity score [5] | differential drug sensitivity score [6] | differential drug sensitivity score [7] | differential drug sensitivity score [8] | differential drug sensitivity score [9] | differential drug sensitivity score [10] | differential drug sensitivity score [11] | differential drug sensitivity score [12] | differential drug sensitivity score [13]
1 | COC1=CC(c2cc3ccccc3[nH]2)=N/C1=C\c1[nH]c(C)cc1C [Obatoclax] | -0.2 | -3.8 | 4.4 | -2.4 | -3 | -0.7 | 2.9 | 6.9 | 7.5 | 4 | 1.5 | 3.3 | 2.1
2 | C=CC(=O)N1CCN(CCCn2c(=O)c(-c3c(Cl)c(OC)cc(OC)c3Cl)cc3cnc(NC)nc32)CC1 [PRN1371] | -3.3 | -9.1 | -4.8 | -10.8 | -11.5 | 11.9 | 15.7 | 15.6 | 5.7 | 21.1 | -0.7 | 11.1 | 2.4
3 | CN(C)C(=O)c1cc2cnc(Nc3ccc(N4CCNCC4)cn3)nc2n1C1CCCC1 [Ribociclib] | -2.1 | -2.1 | -2 | -2.3 | -0.8 | 2.6 | 8 | 4.2 | 4.1 | 3.5 | 1.9 | -3 | 0.4
4 | CO[C@H]1C[C@@H]2CC[C@@H](C)[C@@](O)(O2)C(=O)C(=O)N2CCCC[C@H]2C(=O)O[C@H]([C@H](C)C[C@@H]2CC[C@@H](OCCO)[C@H](OC)C2)CC(=O)[C@H](C)/C=C(\C)[C@@H](O)[C@@H](OC)C(=O)[C@H](C)C[C@H](C)/C=C/C=C/C=C/1C [Everolimus] | -3.9 | -5.3 | -6.4 | -7.4 | -3.3 | 5.3 | 13.6 | 12 | 9.6 | 4.8 | 9.3 | -7 | -3.5
5 | Cc1ccc(C(=O)Nc2cccc(C(F)(F)F)c2)cc1Nc1nc(-c2cccnc2)nc2c1cnn2C [BHG712] | -1.6 | -1.6 | -1.6 | -1.6 | -1.6 | -1.1 | 3.8 | 0.6 | -1.6 | 7.1 | -1.6 | -1.6 | -1.6
6 | CN(NC(=O)CC(=O)NN(C)C(=S)c1ccccc1)C(=S)c1ccccc1 [Elesclomol] | 2 | -6 | -6 | -4 | -5.7 | 0.9 | 18.6 | 40.9 | 28.6 | 6.3 | -0.7 | 7.7 | -6
7 | COc1cc2nc(N3CCCN(C)CC3)nc(NC3CCN(Cc4ccccc4)CC3)c2cc1OC | 4 | 0.2 | 1.5 | -1.1 | 4 | 0.7 | 0 | 6.4 | 7.4 | 1.2 | -0.4 | 3.9 | -0.1
8 | NC1(c2ccc(-c3nc4ccn5c(=O)[nH]nc5c4cc3-c3ccccc3)cc2)CCC1 [MK-2206] | 10.4 | 3.7 | 0.7 | -3.1 | -2.3 | 1.8 | 14 | 6.8 | 3.4 | 13.3 | 4.8 | 15.8 | 0.5
9 | COc1cccc2c1C(=O)c1c(O)c3c(c(O)c1C2=O)C[C@@](O)(C(C)=O)C[C@@H]3O[C@H]1C[C@H](N)[C@H](O)[C@H](C)O1 [Daunorubicin] | 13.2 | 4.9 | 2.7 | 2.8 | 0.8 | 9.1 | 21.7 | -4.5 | -5.2 | 3.2 | 12.6 | 12.9 | 12.2
10 | N[C@@H]1CCCN(c2c(/C=C3\SC(=O)NC3=O)cccc2-c2ccccc2)C1 [AZD1208] | 2 | 8.2 | 1.1 | 1.2 | 13.6 | -0.4 | 0 | -0.8 | -2.9 | 1.8 | 3.6 | -2.9 | -2.9
11 | Nc1ccn([C@@H]2O[C@H](CO)[C@@H](O)C2(F)F)c(=O)n1 [Gemcitabine] | 1.8 | 4.5 | -7 | -4.9 | -7 | 23.1 | 24.8 | 20.1 | 24.5 | 18.7 | 19.6 | 9.7 | 22.4
12 | CC(C)(C)c1nc(-c2cccc(NS(=O)(=O)c3c(F)cccc3F)c2F)c(-c2ccnc(N)n2)s1 [Dabrafenib] | -1.2 | -1.2 | -1.2 | -1.2 | -1.2 | 11.1 | 7.7 | -0.7 | -1.1 | 0.8 | 3.9 | 2.3 | -1.2
13 | CN[C@@H](C)C(=O)N[C@H](C(=O)N1CCC[C@H]1C(=O)Nc1snnc1-c1ccccc1)C1CCCCC1 [GDC0152] | 7.6 | 12.4 | 5.8 | -2.5 | 11.1 | -3.6 | 1.9 | 4.8 | -0.8 | 10.7 | 4.5 | 0.6 | -3.6
14 | O=C(Nc1ccncc1)c1cc([N+](=O)[O-])ccc1Cl | -2.3 | -0.7 | 5.4 | -3 | -14.7 | 11.8 | 14.8 | 11.7 | 0.8 | 12.2 | -3.3 | -0.6 | -2.4
15 | COc1cc(Nc2c(C#N)cnc3cc(OCCCN4CCN(C)CC4)c(OC)cc23)c(Cl)cc1Cl [Bosutinib] | 1.8 | 0.6 | -0.5 | 0.1 | -0.4 | -0.5 | -0.5 | -0.5 | -0.5 | -0.5 | 0.5 | 0.2 | 1.1
16 | CC(=O)O[C@@]12CO[C@@H]1C[C@H](O)[C@@]1(C)C(=O)[C@H](O)C3=C(C)[C@@H](OC(=O)[C@H](O)[C@@H](NC(=O)OC(C)(C)C)c4ccccc4)C[C@@](O)([C@@H](OC(=O)c4ccccc4)[C@H]21)C3(C)C [Docetaxel] | 6.8 | -0.1 | 2 | -3.2 | -20.9 | 24.4 | 23.8 | 5.9 | 5.3 | 11.4 | 26.8 | 17.1 | 20
17 | CO[C@@]12[C@H](COC(N)=O)C3=C(C(=O)C(C)=C(N)C3=O)N1C[C@@H]1N[C@@H]12 [Mitomycin] | 1.6 | -1.3 | -3.8 | -4.7 | 0.6 | 14.4 | 22.4 | 10.3 | 9.5 | 18.4 | 6.6 | 15.5 | 17.3
18 | CCC1=C[C@@H]2CN(C1)Cc1c([nH]c3ccccc13)[C@@](C(=O)OC)(c1cc3c(cc1OC)N(C)[C@H]1[C@@](O)(C(=O)OC)[C@H](OC(C)=O)[C@]4(CC)C=CCN5CC[C@]31[C@@H]54)C2 [Vinorelbine] | 9.1 | 8.7 | 4.3 | 6.9 | 0.2 | 23.7 | 22.8 | 15.4 | 15.8 | 14.7 | 24.7 | 12.2 | 20.4
19 | CN1CCC(COc2cnc(-c3cccc(Cn4nc(-c5cccc(C#N)c5)ccc4=O)c3)nc2)CC1 [Tepotinib] | -2.5 | -1.4 | 2.3 | -5.4 | 3.5 | 4.4 | 0.6 | -4.7 | -0.6 | -4.7 | 9 | -4.5 | -4.3
20 | Cc1nn(C)c(COc2ccc(N3CCN(S(=O)(=O)N(C)C)CC3)cc2)c1-c1cccc2c(CCCOc3cccc4ccccc34)c(C(=O)O)n(CCN3CCOCC3)c12 | -0.8 | 4.4 | -0.8 | -0.8 | 0 | -0.8 | -0.4 | -0.8 | -0.8 | -0.8 | -0.8 | -0.8 | -0.8
21 | O=C(/C=C\n1cnc(-c2cc(C(F)(F)F)cc(C(F)(F)F)c2)n1)NNc1ccccn1 [Verdinexor] | 7.9 | 0.6 | 0 | -3.6 | -13 | 3.4 | 11 | 8.4 | 1.5 | 17.7 | -3.2 | 3.7 | 0.1
22 | CC(C)n1nc(-c2cc3cc(O)ccc3[nH]2)c2c(N)ncnc21 [Torkinib] | 2.3 | 4.4 | -0.9 | -1.3 | -3.5 | 2.1 | 13.7 | 5.2 | 1.1 | 8.1 | 2 | -1.3 | 2.2
23 | CC(C)C[C@H](NC(=O)CNC(=O)c1cc(Cl)ccc1Cl)B(O)O [Ixazomib] | 3.6 | 9.5 | 9.9 | 1.8 | 3.2 | 5.2 | 4.9 | 3.5 | 4.9 | 0.7 | 7.6 | -2.2 | -2.9
24 | CC(C)NCCCn1c(Sc2cc3c(cc2I)OCO3)nc2c(N)ncnc21 [Zelavespib] | 3.1 | 0.5 | -1.1 | -7.7 | 4.4 | 0.8 | 3.4 | -2.1 | 0.4 | 5.8 | 7.3 | 2.3 | -0.6
25 | COc1cc(Nc2ncc3c(n2)-c2ccc(Cl)cc2C(c2c(F)cccc2OC)=NC3)ccc1C(=O)O [Alisertib] | 5.5 | -3.4 | -7.3 | -3.7 | -0.9 | 20 | 21.5 | -11.3 | 8.5 | 8.2 | 15.8 | 17.2 | 15.3
26 | Cn1c(Nc2ccc(C(F)(F)F)cc2)nc2cc(Oc3ccnc(-c4ncc(C(F)(F)F)[nH]4)c3)ccc21 [RAF-265] | 0.9 | -2.9 | 3 | -6.1 | -2.8 | 5.1 | 6.1 | -2.3 | -0.7 | 5.2 | 9.3 | 6.4 | 1
27 | CCC(=O)N1CCN(c2ccc(-n3c(=O)ccc4cnc5ccc(-c6cnc7ccccc7c6)cc5c43)cc2C(F)(F)F)CC1 [Torin-1] | 1.9 | 4.9 | -8.4 | -4 | 4.4 | -3.5 | 6.9 | -2.7 | -0.5 | 0.8 | 6.3 | -6.9 | -1.2
28 | C[C@H](Nc1ncnc2nc[nH]c12)c1cc2cccc(Cl)c2c(=O)n1-c1ccccc1 [Duvelisib] | 4.4 | 4.2 | 0.6 | 1.2 | -1.2 | -5.6 | 1.9 | -4.4 | -2.7 | -1.1 | 9.1 | 4.2 | 3.4
